Experimental data reported in patent US20220396569A1 (Carmot Therapeutics, Inc., priority 2021, published 2022).

These compounds were tested against T1, human GLP-1 receptor (Homo sapiens, UniProt P43220) (assay: GLP-1R cAMP Assay (HitHunter cAMP accumulation)). Details: cAMP accumulation, CHO cells stably overexpressing human GLP-1 receptor, 30 min treatment; read-out: EC50.
T1 construct: expressed in transfected cells
T1 sequence (P43220 24-463): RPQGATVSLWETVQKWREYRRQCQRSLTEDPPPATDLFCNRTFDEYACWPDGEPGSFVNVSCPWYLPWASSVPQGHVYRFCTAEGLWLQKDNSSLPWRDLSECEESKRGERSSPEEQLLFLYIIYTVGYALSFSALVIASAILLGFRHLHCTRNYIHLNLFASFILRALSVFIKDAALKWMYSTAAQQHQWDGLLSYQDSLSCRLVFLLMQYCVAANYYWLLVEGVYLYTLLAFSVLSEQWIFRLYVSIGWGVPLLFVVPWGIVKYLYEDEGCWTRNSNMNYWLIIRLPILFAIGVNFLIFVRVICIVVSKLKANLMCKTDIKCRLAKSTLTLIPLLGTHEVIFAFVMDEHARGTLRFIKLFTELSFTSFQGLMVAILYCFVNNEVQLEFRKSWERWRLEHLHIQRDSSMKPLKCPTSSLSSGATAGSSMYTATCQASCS
Type: cell-based
Description: cAMP accumulation was measured in Chinese hamster ovary (CHO) cells stably overexpressing the human GLP-1 receptor using the HitHunter cAMP Assay for Small Molecules Kit (Eurofins). Briefly, cells were grown in Ham's F12 Nutrient Mix with 10% FBS, and lifted with Cell Dissociation Buffer, Enzyme free, PBS based (ThermoFisher). Cells were pelleted, and resuspended in Hank's buffered saline solution with 10 mM HEPES, and 625 μM 3-isobutyl-1-methylxanthine. The anti-cAMP antibody reagent was then added to cells at a 1:2 ratio and 5 μL of mixture was seeded in 384-well small volume white assay plates, at 10,000 cells/well. Cells were then treated with 50 nL compound using an ECHO 550 acoustic dispenser (Labcyte) in a 20-point dose response format in triplicate for 30 min. Cells were then lysed, and detection reagents added according to the manufacturer's protocol. After overnight incubation, luminescence was measured using a Perkin Elmer Envision plate reader. Dose response curves were analyzed using GraphPad Prism 9.0. […]
In the case of `CCn1cncc1Cn1c(CN2CC(Oc3ccnc(COc4ccc(Cl)cc4Cl)c3)C2)nc2ccc(C(=O)O)cc21` [Compound 218, 2-{[3-({2-[(2,4-dichlorophenoxy)methyl]pyridin-4-yl}oxy)azetidin-1-yl]methyl}-1-[(1-ethyl-1H-imidazol-5-yl)methyl]-1H-1,3-benzodiazole-6-carboxylic acid], the EC50 is reported as < 50 nM.
For `CCn1cncc1Cn1c(CN2CC(=Cc3cnc(COc4ccc(Cl)cc4C#N)o3)C2)nc2ccc(C(=O)O)cc21` [Compound 225, 2-{[3-({2-[(4-chloro-2-cyanophenoxy)methyl]-1,3-oxazol-5-yl}methylidene)azetidin-1-yl]methyl}-1-[(1-ethyl-1H-imidazol-5-yl)methyl]-1H-1,3-benzodiazole-6-carboxylic acid], the EC50 was < 50 nM.
For `CCn1cncc1Cn1c(CN2CC(=Cc3ccnc(COc4ccc(Cl)cc4C#N)c3)C2)nc2ccc(C(=O)O)cc21` [Compound 226, 2-{[3-({2-[(4-chloro-2-cyanophenoxy)methyl]pyridin-4-yl}methylidene)azetidin-1-yl]methyl}-1-[(1-ethyl-1H-imidazol-5-yl)methyl]-1H-1,3-benzodiazole-6-carboxylic acid], the EC50 was < 50 nM.
In the case of `O=C(O)c1ccc2nc(CN3CC(Oc4cccc(COc5ccc(Cl)cc5Cl)c4)C3)n(Cc3ncco3)c2c1` [Compound 228, 2-[(3-{3-[(2,4-dichlorophenoxy)methyl]phenoxy}azetidin-1-yl)methyl]-1-[(1,3-oxazol-2-yl)methyl]-1H-1,3-benzodiazole-6-carboxylic acid], the EC50 is reported as < 50 nM.
For `N#Cc1cc(Cl)ccc1OCc1cccc(OC2CN(Cc3nc4ccc(C(=O)O)cc4n3Cc3ncco3)C2)c1` [Compound 229, 2-[(3-{3-[(4-chloro-2-cyanophenoxy)methyl]phenoxy}azetidin-1-yl)methyl]-1-[(1,3-oxazol-2-yl)methyl]-1H-1,3-benzodiazole-6-carboxylic acid], the EC50 was < 50 nM.
`CCn1cncc1Cn1c(CN2C[C@@H](Oc3cccc(COc4ccc(Cl)cc4Cl)c3)[C@@H]2C)nc2ccc(C(=O)O)cc21` [Compound 234, 2-{[(2S,3R)-3-{3-[(2,4-dichlorophenoxy)methyl]phenoxy}-2-methylazetidin-1-yl]methyl}-1-[(1-ethyl-1H-imidazol-5-yl)methyl]-1H-1,3-benzodiazole-6-carboxylic acid] was tested, and the EC50 was < 50 nM.
`CCn1cncc1Cn1c(CN2CC3(CC(Oc4cccc(COc5ccc(Cl)cc5Cl)c4)C3)C2)nc2ccc(C(=O)O)cc21` [Compound 235, 2-[(6-{3-[(2,4-dichlorophenoxy)methyl]phenoxy}-2-azaspiro[3.3]heptan-2-yl)methyl]-1-[(1-ethyl-1H-imidazol-5-yl)methyl]-1H-1,3-benzodiazole-6-carboxylic acid] was tested, and the EC50 was 50 to 500 nM.
For `O=C(O)c1ccc2nc(CN3CC(Oc4ccnc(COc5ccc(Cl)cc5Cl)c4)C3)n(Cc3ccno3)c2c1` [Compound 236, 2-{[3-({2-[(2,4-dichlorophenoxy)methyl]pyridin-4-yl}oxy)azetidin-1-yl]methyl}-1-[(1,2-oxazol-5-yl)methyl]-1H-1,3-benzodiazole-6-carboxylic acid], the EC50 was < 50 nM.
For `O=C(O)c1ccc2nc(CN3CC(Oc4cccc(COc5ccc(Cl)cc5Cl)c4)C3)n(Cc3ccno3)c2c1` [Compound 237, 2-[(3-{3-[(2,4-dichlorophenoxy)methyl]phenoxy}azetidin-1-yl)methyl]-1-[(1,2-oxazol-5-yl)methyl]-1H-1,3-benzodiazole-6-carboxylic acid], the EC50 was < 50 nM.
In the case of `O=C(O)c1ccc2nc(CN3CC(Oc4cccc(COc5ccc(Cl)cc5Cl)c4)C3)n(Cc3cnco3)c2c1` [Compound 238, 2-[(3-{3-[(2,4-dichlorophenoxy)methyl]phenoxy}azetidin-1-yl)methyl]-1-[(1,3-oxazol-5-yl)methyl]-1H-1,3-benzodiazole-6-carboxylic acid], the EC50 is reported as < 50 nM.
